Read-outs that look alike come from different tables or passages of the source.
Experiments:
dog prostate tissue = assay: Macroscopic anti-proliferate effect on dog prostate tissue: volume before, weight after, palpation (Example 1); assay type: in vivo; parameters: key to Palpation: 0 = no effect; + = mild effect; ++ = intermediate; +++ = strong effect; settings: for Weight of prostate tissue (after): termination after day 20
Excerpt: After day 20, each dog was terminated with an intravenous dose of a mixture of pentobarbital and potassium. The following organs were surgical removed and frozen: prostate, testis, liver and kidney for the assessment of effect and safety. These organs were carefully examined as a consequence of the local tissue exposure of 2-hydroxy-flutamide and the ceramic-based implant. The macroscopic pharmacological anti-proliferate effect of 2-hydroxy-flutamide was examined as the volume-weight ratio of the dog prostate tissue before and after the local administration of 2-hydroxy-flutamide as a single controlled release pharmaceutical composition.

[1] = Plasma pharmacokinetics and tissue level after local administration of ceramic-based controlled release composition into dog prostate (Example 1); assay type: in vivo
Protocol: One week later, the same animals were given 2-hydroxy-flutamide locally by a controlled release pharmaceutical composition in the prostate tissue. The 2-hydroxy- flutamide doses were 0 mg (H1), 30 mg (H3), 60 mg (H2) and 120 mg (H4), and each dog was given one implant only. Where H1 was a control given the composition without 2-hydroxy-flutamide. All doses of 2-hydroxy-flutamide were given after an overnight fast. Dog 1 (H1) and dog 3 (H3) were given an enema preoperatively. After the local prostate application of the pharmaceutical composition through rectum, an antibiotic (Quinolon) was administered in normal doses.
The controlled release pharmaceutical composition was composed of a calcium sulphate ceramic and 2-hydroxy-flutamide (Catalogue No. 161.01, from Micromol). To prepare the implant, a calcium sulfate hemi-hydrate (Calcium Sulfate-0.5-hydrate, Product No. 12090, from Riedel-de Haen) is mixed as a fine-grained powder with water and the active agent to form an injectable paste. The paste solidifies in-vivo in about 5 minutes to a solid implant. The ceramic powder to water ratio is 1:2 and the dose of active agent (30, 60 or 120 mg) is mixed with a total 0.8 ml of paste.
The controlled release pharmaceutical composition was inserted locally into the prostate tissue through needles by ultrasound guidance. The animals were under general anesthesia during the insertion procedure. The needle (15 cm long with an outer diameter of 0.9 mm) was inserted into the prepared rectum (an enema was given preoperatively) and was inserted through the rectal and abdominal wall and positioned in the prostate tissue by ultrasound guidance. The pharmaceutical composition was given as multiple thin strings of approximately 12 mm length and with a diameter of 1-2 mm.
After administration of the controlled release pharmaceutical composition in the prostate tissue, blood samples were taken during 3 weeks. Samples of 1.0 ml were taken from the Cephalic vein at day 0, after 6 hours and then in the morning at day 1, 2, 3, 4, 5, 6, 9, 12, 14, 16, 19 and 20 following the administration of the implant. The blood samples were immediately centrifuged at 3000 rpm and the plasma samples were frozen at −20° C. until analysis.
After day 20, each dog was terminated with an intravenous dose of a mixture of pentobarbital and potassium. The following organs were surgical removed and frozen: prostate, testis, liver and kidney for the assessment of effect and safety. These organs were carefully examined as a consequence of the local tissue exposure of 2-hydroxy-flutamide and the ceramic-based implant.
Quantification of 2-hydroxy-flutamide in plasma and tissue samples was done by HPLC-MS. HPLC was performed with a Surveyor HPLC system equipped with a CTC Pal autosampler. The analytical column was a Zorbax Eclipse XDB-18 (2.1 mm×50 mm, particle size 5 μm) connected to a guard column. The eluent consisted of solvent A (aqueous formic acid 0.1%) and B (acetonitrile), a linear gradient from 25 to 90% of solvent B in 5 minutes was applied. The proportion of solvent B was then lowered to 25% in one minute and was allowed to equilibrate at this level for two minutes prior to the next injection. The volumetric flow-rate was 200 μL/min and the injection volume was 20 μL. The HPLC column outlet was coupled to a TSQ Quantum Ultra tandem triple quadrupole mass spectrometer (ThermoFinnigan, San José, Calif., USA). The transition of m/z 291 [M-H]^−→205 was used for 2-hydroxy-flutamide and m/z 316 [M-H]^−→273 was used for nilutamide (internal standard). The limit of quantification was 0.50 ng/ml in dog plasma. Calibration samples were prepared by spiking blank plasma samples with 100 μL of solutions of 2-hydroxy-flutamide at different concentrations. […]

[2] = male, Labrador, plasma, dog H2, 60 mg local prostate implant
[3] = male, Labrador, plasma, dog H3, 30 mg local prostate implant
[4] = male, Labrador, plasma, dog H4, 120 mg local prostate implant

Q: What does the source list for `CC(C)(O)C(=O)Nc1ccc([N+](=O)[O-])c(C(F)(F)F)c1` [2-hydroxy-flutamide]?
A: Palpation (dog prostate tissue; dog H2, 60 mg local prostate implant): ++; Weight of prostate tissue (after) (dog prostate tissue; dog H2, after local administration of 60 mg): 13 g; volume of prostate tissue (before) (dog prostate tissue; dog H2, before local administration of 60 mg): 13.3 cm^3; Palpation (dog prostate tissue; dog H3, 30 mg local prostate implant): 0; Weight of prostate tissue (after) (dog prostate tissue; dog H3, after local administration of 30 mg): 17 g; volume of prostate tissue (before) (dog prostate tissue; dog H3, before local administration of 30 mg): 12.4 cm^3; Palpation (dog prostate tissue; dog H4, 120 mg local prostate implant): +++; Weight of prostate tissue (after) (dog prostate tissue; dog H4, after local administration of 120 mg): 13 g; volume of prostate tissue (before) (dog prostate tissue; dog H4, before local administration of 120 mg): 11.3 cm^3; anti-proliferate effect (dog prostate tissue; dogs, local prostate implant, three weeks): clear anti-proliferate effect; macroscopic effect based on volume (before) and weight (after) (dog prostate tissue; two higher doses (60 mg, H2 and 120 mg, H4) in comparison with placebo (H1) and low dose (30 mg, H3)): resulted in a macroscopic effect; concentration in the prostate tissue ([1]; dogs, after three weeks of treatment with local implant): not possible to quantify; Cmax after intravenous dosing relative to Cmax after local implant dosing ([1]; dogs, i.v. 25 mg versus local implant 120 mg): about 6 times; half-life ([1]; male, Labrador, dog, plasma, 30 mg, dog H3, 30 mg local prostate implant, read-out: t1/2 (converted)): 2100 min; half-life ([1]; male, Labrador, dog, plasma, 60 mg, dog H2, 60 mg local prostate implant, read-out: t1/2 (converted)): 2700 min; half-life ([1]; male, Labrador, dog, plasma, 120 mg, dog H4, 120 mg local prostate implant, read-out: t1/2 (converted)): 2460 min; half-life ([1]; male, Labrador, dog, plasma, 120 mg, given in the ceramic composition, three dosed dogs (30, 60, 120 mg), read-out: elimination half-life): 2100 to 2700 min; bioavailability ([1]; male, Labrador, dog, plasma, dogs, local prostate implant, on average, read-out: bioavailability from the intraprostate tissue (approximation)): > 100%; AUC [1, 2]: 4020 ng·h/mL; Cmax [1, 2]: 69.5 ng/mL; Tmax [1, 2]: 6 h; AUC [1, 3]: 990 ng·h/mL; Cmax [1, 3]: 26.4 ng/mL; Tmax [1, 3]: 6 h; AUC [1, 4]: 9410 ng·h/mL; Cmax [1, 4]: 142 ng/mL; Tmax [1, 4]: 24 h
